# Measurements published in article PMC2652713, “Molecular Blocking of CD23 Supports Its Role in the Pathogenesis of Arthritis” (PLoS ONE, 2009).
# Entries after “also recorded” stand apart in the source; their conditions may differ.
# Key:
# [1] = tested on: healthy human PBL-derived macrophages; experiment: Inflammatory mediator release from healthy human PBL-derived macrophages; type: cell-based
# Method: Figure 4 Inhibition of inflammatory mediator generation from healthy human PBL-derived macrophages by p30A. Decreased levels of TNF-α (A), IL-6 (B), IL-1β, IL-8 and IL-10 (C) were detected in CD23-activated cells after incubation with p30A. […] Values are mean±s.d. of cells from 5 (IL-6, TNF-α) or 2 (IL-1β, IL-8, IL-10) different donors.
# (§1) Monocytes or macrophages were activated through CD23 pathway: while monocytes/macrophages from RA patients express CD23, monocytes from healthy donors must be pre-activated to express surface CD23 as described. This pre-activation was obtained by incubation of healthy monocytes with recombinant human IL-4 (20 ng/ml) during 48 h at 37°C; After washing, all cell populations were tested by flow cytometry for their surface CD23 expression (>80% CD23^+) and then incubated in the presence of cross-linking CD23-MAb (clones 135 or DM2, IgG1k, 20 µg/ml) during 48–72 h, or IgE and anti-IgE as described, [17]. When indicated, peptides were added to the cells 2 h prior to their activation. Cells supernatants were then analyzed for their nitric oxide content (see below) and for the presence of cytokines: levels of TNF-α and IL-6 were determined in duplicates for each sample by a specific ELISA (R&D, Paris, France) while levels of IL-1β, IL-8 and IL-10 was determined using FlowCytomix Human Th1/Th2 Kit as recommended (Bender Medsystems, Vienna, Austria).
# [2] = tested on: human CD23+ monocyte-derived macrophages; experiment: Nitrite (NO) generation by CD23-activated human macrophages, Griess reaction; type: cell-based
# Method: Figure 2 Inhibition of CD23-mediated activation of iNOS pathway in human macrophages by p30A. Human CD23^+ monocyte-derived macrophages were incubated with cross-linking CD23-McAb (20 µg/ml) alone or following 1 h pre-incubation with 10 µg/ml of various peptides. […] Expression of iNOS mRNA was compared to HPRT mRNA levels. (B) Inhibition of NO generation from human activated macrophages by synthetic peptides. Cell supernatants were collected 72 h following cell cultures and levels of nitrites were determined. […] Results are expressed as mean of 3 distinct donor cell preparations (SEM<20%). (C) Inducible NOS-mediated NO generation in human macrophages is decreased following pre-incubation with p30A or L-NIL prior to CD23-mediated activation. Results are expressed as mean±s.d. of 7 distinct donor cell preparations.
# as §1
# Culture supernatants (72 h) were assayed for the stable end-product of NO, NO2 ^− using the Griess reaction modified as detailed elsewhere. Inhibitory analog of L-arginine, L-NIL (N(6)-(1-iminoethyl)-L-lysine/2HCl, Coger SA, Paris, France) was used to inhibit iNOS-mediated NO generation. This method gave a sensitivity limit of 0.2 µM if low NO2 ^− medium (DMEM) was used. Total RNA was isolated as above from peritoneal macrophages. Reverse transcription-PCR was performed with an automatic thermal cycler (iCycler, Biorad) using the following specific primers: iNOS mRNA sense (5′-[…]-3′, exon 8) and iNOS mRNA antisense (5′-[…]-3′, exon 11). Hypoxanthine phosphoribosyltransferase (HPRT) mRNA sense (5′-[…]-3′) and HPRT mRNA antisense (5′-[…]- 3′) primers were used as controls. The iNOS messenger is represented by a 371-bp band, whereas a 496-bp band indicates the HPRT messenger.
# [3] = tested on: human CD23; experiment: Flow cytometry, inhibition of anti-CD23-FITC McAb binding to human macrophages; conditions: human PBL-derived CD23+ macrophages, p30A 10 µg/ml pre-incubation, anti-CD23-FITC 20 µg/ml
# Method: (§2) Figure 1 Specific blockade of CD23 reactivity by p30A. Flow cytometry analysis showing the inhibition of (A) anti-CD23-FITC (20 µg/ml) or (B) IgE (10 µg/ml)/anti-IgE-FITC (1 µg/ml) binding to CD23^+ human PBL-derived macrophages (red lines) or following their pre-incubation with p30A peptides (10 µg/ml) (blue lines). (C) CD23 western blot was performed on total protein extract from à CD23^+ B-cell line. The detection with CD23-McAb followed the pre-incubation of the blot with or without p30A (10 µg/ml). Similar protein quantity (50 µg) was used for each western blot condition.
# [4] = tested on: soluble and surface CD23; experiment: Interaction of p30A with soluble and surface CD23 (inferred); type: binding, human
# Method: as §2
# As control (pCtl), we have used synthetic heptapeptide with unrelated sequence (SFNYNYA).
# Total cellular proteins were isolated from CD23^+, ADAM B-cell line in cell lysis buffer (10 mM Tris pH 8.0, 150 mM NaCl, 5 mM EDTA, 1% Triton X-100, 0.05% SDS, 10 mM Sodium Fluoride, 1 mM Sodium Orthovanadate, 5 µM Molibdic Acid) and a mixture of protease inhibitors (all from Sigma Aldrich, Saint Quentin Fallavier, France). Protein concentration was determined using the Bradford assay (Bio Rad, Hemel Hempstead, UK). Protein samples (50 µg total protein) were subjected to SDS-PAGE using a 12% resolving gel. […] Immunoreactive bands (CD23 and Bcl2) were detected using the FluorChem 8800 (Alpha Innotech, San Leandro, USA) and semi-quantified by densitometry using AlphaEase FC (Alpha Innotech).
# [5] = tested on: human CD23+ macrophages; experiment: IgE-mediated activation of human CD23+ macrophages; type: cell-based
# Method: as §1
# [6] = FlowCytomix, mean±s.d., 2 donors
substance,measurement,setting,value
FHENWPS [p30A],IL-6 level,"[1]; ELISA, mean±s.d., 5 donors",Decreased
same,TNF-α level,"[1]; ELISA, mean±s.d., 5 donors",Decreased
same,IL-1β level,[1]; [6],Decreased
same,IL-8 level,[1]; [6],Decreased
same,IL-10 level,[1]; [6],Decreased
same,inhibition of CD23-mediated inflammatory mediators at protein level,"[1]; TNF-α, IL-6, IL-1β, IL-8 and IL-10 in supernatants",significantly inhibited all CD23-mediated activation of inflammatory mediators at protein levels
same,"NO (nitrite) generation, dose-dependence","[2]; CD23-McAb 20 µg/ml, 1 h pre-incubation with peptide, supernatants at 72 h, mean of 3 donors (SEM<20%)",reversed by p30A in a dose-dependent manner; also recorded: Dose-dependent reduction of nitrites
same,iNOS-mediated NO generation,"[2]; pre-incubation prior to CD23-mediated activation, mean±s.d. of 7 donors (Figure 2C)",decreased
same,inhibition of FITC-conjugated anti-CD23 McAb binding,[3],inhibits the binding of FITC-conjugated anti-CD23 McAb
same,binding to human CD23,[4],specifically bound human and rat CD23
same,affinity of interaction with soluble and surface CD23 relative to McAb or IgE-anti-IgE,"[4]; authors' inference from Figure 1A-C, Kd not given",interacts with both soluble and surface CD23 forms with a higher affinity than specific McAb or IgE-anti-IgE immune complexes
same,IgE-mediated activation of human CD23+ macrophages,[5],decreased IgE-mediated activation of both human and rat CD23^+ macrophages
